Reference: the NIST ThermoML archive (doi:10.1021/je200757a)

Tests used:
[1] = xn = mol fraction of the nth substance listed; settings: for viscosity / mass density: 101 kPa, Liquid; for viscosity: Capillary tube (Ostwald / Ubbelohde) method; for mass density: Vibrating tube method
[2] = refractive index (Na D-line) (dimensionless); xn = mol fraction of the nth substance listed; settings: 101 kPa, Liquid

C1C[C@@H]2[C@H]3CC[C@H](C3)[C@@H]2C1 [exo-tetrahydrodicyclopentadiene] + CCCCCCCCCCCCC
Settings	mass density, [1] [kg/m3]	refractive index, [2]	surface tension liquid-gas, [1] [mN/m]	viscosity, [1] [mPa·s]
293.15 K, x2 = 0	935.3	1.4877	31.86	3.077
293.15 K, x2 = 0.0757	913.9	1.4795	30.4	2.88
293.15 K, x2 = 0.1546	893.5	1.4726	29.63	2.703
293.15 K, x2 = 0.2392	873.7	1.4662	28.55	2.552
293.15 K, x2 = 0.3284	854.6	1.4586	28.03	2.419
293.15 K, x2 = 0.4236	836.3	1.4528	27.19	2.302
293.15 K, x2 = 0.5258	818.7	1.4468	26.68	2.198
293.15 K, x2 = 0.632	802.3	1.4407	25.95	2.108
293.15 K, x2 = 0.7477	786.3	1.4349	25.54	2.028
293.15 K, x2 = 0.8665	771.5	1.4306	25.19	1.963
298.15 K, x2 = 0	931.4	–	–	2.784
298.15 K, x2 = 0.0757	910	–	–	2.609
298.15 K, x2 = 0.1546	889.7	–	–	2.448
298.15 K, x2 = 0.2392	869.9	–	–	2.311
298.15 K, x2 = 0.3284	850.9	–	–	2.189
298.15 K, x2 = 0.4236	832.6	–	–	2.082
298.15 K, x2 = 0.5258	815	–	–	1.992
298.15 K, x2 = 0.632	798.7	–	–	1.913
298.15 K, x2 = 0.7477	782.7	–	–	1.842
298.15 K, x2 = 0.8665	767.9	–	–	1.789
303.15 K, x2 = 0	927.5	1.4832	31.09	2.525
303.15 K, x2 = 0.0757	906.1	1.4743	29.94	2.37
303.15 K, x2 = 0.1546	885.9	1.4683	28.98	2.233
303.15 K, x2 = 0.2392	866.1	1.4614	28.38	2.112
303.15 K, x2 = 0.3284	847.1	1.4541	27.21	2
303.15 K, x2 = 0.4236	828.9	1.4483	26.74	1.904
303.15 K, x2 = 0.5258	811.3	1.442	25.72	1.822
303.15 K, x2 = 0.632	795	1.4357	25.38	1.748
303.15 K, x2 = 0.7477	779	1.4305	24.83	1.689
303.15 K, x2 = 0.8665	764.3	1.4258	24.5	1.631
313.15 K, x2 = 0	919.6	–	–	2.112
313.15 K, x2 = 0.0757	898.4	–	–	1.975
313.15 K, x2 = 0.1546	878.2	–	–	1.86
313.15 K, x2 = 0.2392	858.4	–	–	1.759
313.15 K, x2 = 0.3284	839.5	–	–	1.669
313.15 K, x2 = 0.4236	821.4	–	–	1.587
313.15 K, x2 = 0.5258	803.9	–	–	1.521
313.15 K, x2 = 0.632	787.7	–	–	1.466
313.15 K, x2 = 0.7477	771.8	–	–	1.416
313.15 K, x2 = 0.8665	757	–	–	1.369
